Measurements reported in US7838674B2, “Tetracyclic lactame derivatives” (Novartis AG, priority 2007, dated 2010).
Where a name gives a salt, the structure may show the parent alone.

Each compound was assayed against T1, MAPKAPK2 enzyme (HIS-MK2, Invitrogen PV4019) (Homo sapiens, UniProt P49137) (assay: Alternative MAPKAPK2 assay (Caliper microfluidic mobility shift, HSP27-peptide)). Conditions: HIS-MK2 0.013 nM, ATP 10 μM, 60 min at 30° C.
T1 construct: His; purchased Invitrogen PV4019
Format: biochemical

T1 sequence (P49137 whole entry): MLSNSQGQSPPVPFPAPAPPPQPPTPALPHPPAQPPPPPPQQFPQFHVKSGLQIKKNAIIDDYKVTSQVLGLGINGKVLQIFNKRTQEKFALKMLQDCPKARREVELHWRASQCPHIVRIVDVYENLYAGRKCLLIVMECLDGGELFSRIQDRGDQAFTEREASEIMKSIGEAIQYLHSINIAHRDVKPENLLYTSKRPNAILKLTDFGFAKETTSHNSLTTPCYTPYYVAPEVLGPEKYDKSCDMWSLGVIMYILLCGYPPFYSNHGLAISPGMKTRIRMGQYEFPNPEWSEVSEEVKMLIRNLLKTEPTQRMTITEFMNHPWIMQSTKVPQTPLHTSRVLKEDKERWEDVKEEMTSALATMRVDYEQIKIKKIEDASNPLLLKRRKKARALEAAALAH

Row | IC50 | SMILES
1 | 20 nM | O=C1NC2(CC2)C2(CC2)c2[nH]c3c(c21)CCc1cnc(-c2ccc(OC4CCOCC4)nc2)cc1-3 [Example 198, 2-(1′-Amino-bicyclopropyl-1-yl)-8-[6-(tetrahydro-pyran-4-yloxy)-pyridin-3-yl]-4,5-dihydro-1H-pyrrolo[2,3-f]isoquinoline-3-carboxylic acid lactam]
2 | < 3 nM | CN1CC2(C1)c1[nH]c3c(c1C(=O)NC21CC1)CCc1cnc(-c2ccc(F)nc2)cc1-3 [Example 223, 2-[3-(1-Amino-cyclopropyl)-1-methyl-azetidin-3-yl]-8-(6-fluoro-pyridin-3-yl)-4,5-dihydro-1H-pyrrolo[2,3-f]isoquinoline-3-carboxylic acid lactam]
3 | 30 nM | O=C1NCC2(CC2)c2[nH]c3c(c21)CCc1cnc(-c2cncnc2)cc1-3 [Example 123, 2-(1-Aminomethyl-cyclopropyl)-8-pyrimidin-5-yl-4,5-dihydro-1H-pyrrolo[2,3f]isoquinoline-3-carboxylic acid lactam]
4 | 30 nM | COc1ccc(-c2ncc3c(n2)-c2c(c4c(n2C)C2(CNC2)CNC4=O)CC3)cc1 [Example 218, 2-(3-Aminomethyl-azetidin-3-yl)-8-(4-methoxy-phenyl)-1-methyl-4,5-dihydro-1H-1,7,9-triaza-cyclopenta[a]naphthalene-3-carboxylic acid lactam hydrochloride]
5 | 19 nM | CN(C)c1ccc(-c2cc3c(cn2)CCc2c-3[nH]c3c2C(=O)NCC32CC2)cn1 [Example 117]
6 | 58 nM | COc1ccc(-c2cc3c(cn2)CCc2c4c(n(C)c2-3)CC2(CNC2)NC4=O)cc1OC [Example 144, 2-3-Amino-azetidin-3-ylmethyl)-8-(3,4-dimethoxy-phenyl)-1-methyl-4,5-dihydro-1H-pyrrolo[2,3-f]isoquinoline-3-carboxylic acid lactam hydrochloride]
7 | 9 nM | CC(C)Oc1ccc(-c2cc3c(cn2)CCc2c4c(n(C)c2-3)C2(CNC2)CNC4=O)cn1 [Example 184, 2-(3-Aminomethyl-azetidin-3-yl)-8-(6-isopropoxy-pyridin-3-yl)-1-methyl-4,5-dihydro-1H-pyrrolo[2,3-f]isoquinoline-3-carboxylic acid lactam hydrochloride]
8 | 39 nM | COc1ccc(-c2cc3c(cn2)CCc2c-3[nH]c3c2C(=O)NCC32CCC2)cc1F [Example 299, 2-(3-Fluoro-4-methoxy-phenyl)-10-spirocyclobutyl-5,6,8,9,10,11-hexahydro-3,8,11-triaza-benzo[a]fluoren-7-one]
9 | 14 nM | Cn1c2c(c3c1-c1cc(-c4cccc(C#N)c4)ncc1CC3)C(=O)NC1(CNC1)C2 [Example 132, 2-(3-Amino-azetidin-3-ylmethyl)-8-(3-cyano-phenyl)-1-methyl-4,5-dihydro-1H-pyrrolo[2,3-f]isoquinoline-3-carboxylic acid lactam hydrochloride]
10 | 6 nM | COc1ccc(-c2ncc3c(n2)-c2c(c4c(n2C)CC2(CNC2)NC4=O)CC3)cc1 [Example 131, 2-(3-Amino-azetidin-3-ylmethyl)-8-(4-methoxy-phenyl)-1-methyl-4,5-dihydro-1H-1,7,9-triaza-cyclopenta[a]naphthalene-3-carboxylic acid lactam hydrochloride]
11 | 23 nM | Cn1c2c(c3c1-c1cc(-c4ccc(N5CCCCC5)nc4)ncc1CC3)C(=O)NC1(CNC1)C2 [Example 149, 2-(3-Amino-azetidin-3-ylmethyl)-8-(6-piperidinyl-pyridin-3-yl)-1-methyl-4,5-dihydro-1H-pyrrolo[2,3-f]isoquinoline-3-carboxylic acid lactam hydrochloride]
12 | 34 nM | CC(C)(O)CCc1ccc(-c2cc3c(cn2)CCc2c-3[nH]c3c2C(=O)NCC32CC2)cc1 [Example 126, 2-(1-Aminomethyl-cyclopropyl)-8-[4-(3-hydroxy-3-methyl-butyl)-phenyl]-4,5-dihydro-1H-pyrrolo[2,3-f]isoquinoline-3-carboxylic acid lactam]
13 | 9 nM | CC(C)Oc1ccc(-c2cc3c(cn2)CCc2c4c(n(C)c2-3)C2(CNC4=O)CN(C)C2)cn1 [Example 183, 2-(3-Aminomethyl-1-methyl-azetidin-3-yl)-8-(6-isopropoxy-pyridin-3-yl)-1-methyl-4,5-dihydro-1H-pyrrolo[2,3-f]isoquinoline-3-carboxylic acid lactam]
14 | 15 nM | O=C1NCC2(CCC2)c2[nH]c3c(c21)CCc1cnc(-c2ccc(F)nc2)cc1-3 [Example 300, 2-(6-Fluoro-pyridin-3-yl)-10-spirocyclobutyl-5,6,8,9,10,11-hexahydro-3,8,11-triaza-benzo[a]fluoren-7-one]
15 | 3 nM | Cn1c2c(c3c1C1(CNC1)C1(CC1)NC3=O)CCc1cnc(-c3cccc(F)c3)cc1-2 [Example 209, 2-[3-(1-Amino-cyclopropyl)-azetidin-3-yl]-8-(3-fluoro-phenyl)-1-methyl-4,5-dihydro-1H-pyrrolo[2,3-f]isoquinoline-3-carboxylic acid lactam hydrochloride]
16 | 13 nM | CCOc1ccc(-c2ncc3c(n2)-c2c(c4c(n2C)CC2(CNC2)NC4=O)CC3)cc1 [Example 59, 2-(3-Amino-azetidin-3-ylmethyl)-8-(4-ethoxyphenyl)-1-methyl-4,5-dihydro-1H-1,7,9-triaza-cyclopenta[a]naphthalene-3-carboxylic acid lactam hydrochloride]

Second part, the compound before the results:

Row | SMILES | IC50
17 | COc1ccc(-c2ncc3c(n2)-c2[nH]c4c(c2CC3)C(=O)NCC42CNC2)cc1F [Example 268, 2-(3-Aminomethyl-azetidin-3-yl)-8-(3-fluoro-4-methoxy-phenyl)-4,5-dihydro-1H-1,7,9-triaza-cyclopenta[a]naphthalene-3-carboxylic acid lactan hydrochloride] | 8 nM
18 | O=C1NC2(CNC2)Cc2[nH]c3c(c21)CCc1cnc(-c2cccc(Br)c2)nc1-3 [Example 285, 2-(3-Amino-azetidin-3-ylmethyl)-8-(3-bromo-phenyl)-4,5-dihydro-1H-1,7,9-triaza-cyclopenta[a]naphthalene-3-carboxylic acid lactam hydrochloride] | 7 nM
19 | CCN1CC2(C1)c1[nH]c3c(c1C(=O)NC21CC1)CCc1cnc(-c2ccccc2F)cc1-3 [Example 253, 2-[3-(1-Amino-cyclopropyl)-1-ethyl-azetidin-3-yl]-8-(2-fluoro-phenyl)-4,5-dihydro-1H-pyrrolo[2,3-f]isoquinoline-3-carboxylic acid lactam] | 15 nM
20 | COc1ccc(-c2cc3c(cn2)CCc2c-3oc3c2C(=O)NC2(CNC2)C3)cc1 [Example 41, 2-(3-Amino-azetidin-3-ylmethyl)-8-(4-methoxy-phenyl)-4,5-dihydro-furo[2,3-f]isoquinoline-3-carboxylic acid lactam hydrochloride] | 21 nM
21 | CN(C)C1CCN(c2ccc(-c3cc4c(cn3)CCc3c-4[nH]c4c3C(=O)NCC43CC3)cc2C#N)C1 (stereo not drawn) [Example 318, 2-(3-Dimethylamino-pyrrolidin-1-yl)-10-spirocyclopropyl-5-(7-oxo-6,7,8,9,10,11-hexahydro-5H-3,8,11-triaza-benzo[a]fluoren-2-yl)-benzonitrile] | 6 nM
22 | N#Cc1cc(-c2cc3c(cn2)CCc2c-3[nH]c3c2C(=O)NCC32CC2)ccc1F [Example 115] | 36 nM
23 | C#Cc1cc(-c2cc3c(cn2)CCc2c-3[nH]c3c2C(=O)NC2(CC2)C3)ccc1OC [Example 75, 2-(1-Amino-cyclopropylmethyl)-8-(3-ethynyl-4-methoxy-phenyl)-4,5-dihydro-1H-pyrrolo[2,3-f]isoquinoline-3-carboxylic acid lactam] | 98 nM
24 | CN1CC2(C1)c1[nH]c3c(c1C(=O)NC21CC1)CCc1cnc(-c2ccc(OCCN4CCOCC4)cc2)nc1-3 [Example 227, 2-[3-(1-Amino-cyclopropyl)-1-methyl-azetidin-3-yl]-8-[4-(2-morpholin-4-yl-ethoxy)-phenyl]-4,5-dihydro-1H-1,7,9-triaza-cyclopenta[a]naphthalene-3-carboxylic acid lactam] | 7 nM
25 | O=C1NC2(CC2)C2(CNC2)c2[nH]c3c(c21)CCc1cnc(-c2cccc(F)c2)nc1-3 [Example 212, 2-[3-(1-Amino-cyclopropyl)-azetidin-3-yl]-8-(3-fluoro-phenyl)-4,5-dihydro-1H-1,7,9-triaza-cyclopenta[a]naphthalene-3-carboxylic acid lactam hydrochloride] | 5 nM
26 | CC(C)(N)CCc1ccc(-c2cc3c(cn2)CCc2c-3[nH]c3c2C(=O)NC2(CC2)C3)cc1 [Example 78, 2-(1-Amino-cyclopropylmethyl)-8-[4-(3-amino-3-methyl-butyl)-phenyl]-4,5-dihydro-1H-pyrrolo[2,3-f]isoquinoline-3-carboxylic acid lactam] | 18 nM
27 | O=C1NCC2(CCC2)c2[nH]c3c(c21)CCc1cnc(-c2ccc(CN4CCOCC4)c(F)c2)cc1-3 [Example 298, 2-(3-Fluoro-4-morpholin-4-ylmethyl-phenyl)-10-spirocyclobutyl-5,6,8,9,10,11-exahydro-3,8,11-triaza-benzo[a]fluoren-7-one] | 20 nM
28 | O=C1NC2(CC2)Cc2[nH]c3c(c21)CCc1cnc(-c2ccc(N4CCNCC4)cc2)cc1-3 [Example 216, 2-(1-Amino-cyclopropylmethyl)-8-(4-piperazin-1-yl-phenyl)-4,5-dihydro-1H-pyrrolo[2,3-f]isoquinoline-3-carboxylic acid lactam hydrochloride] | 18 nM
29 | CN1CC2(C1)c1[nH]c3c(c1C(=O)NC21CC1)CCc1cnc(-c2cccc(C(=O)NCc4ccccc4)c2)cc1-3 [Example 226, 2-[3-(1-Amino-cyclopropyl)-1-methyl-azetidin-3-yl]-8-(3-benzylcarbamoyl-phenyl)-4,5-dihydro-1H-pyrrolo[2,3-f]isoquinoline-3-carboxylic acid lactam] | < 3 nM
30 | N#Cc1cc(-c2cc3c(cn2)CCc2c-3[nH]c3c2C(=O)NCC32CC2)ccc1N1CCN(CCO)CC1 [Example 315, 2-[4-(2-Hydroxy-ethyl)-piperazin-1-yl]-10-spirocyclopropyl-5-(7-oxo-6,7,8,9,10,11-hexahydro-5H-3,8,11-triaza-benzo[a]fluoren-2-yl)-benzonitrile] | 9 nM
